Holding throughout (experiment): biochemical
Conditions in all cases: Inhibition Table B

One assay concerns the target T1, recombinant human MMP-1 (Homo sapiens, UniProt P03956).
T1 construct: made in house; host or cells: transfected HT-1080 cells
T1 sequence (P03956 100-469): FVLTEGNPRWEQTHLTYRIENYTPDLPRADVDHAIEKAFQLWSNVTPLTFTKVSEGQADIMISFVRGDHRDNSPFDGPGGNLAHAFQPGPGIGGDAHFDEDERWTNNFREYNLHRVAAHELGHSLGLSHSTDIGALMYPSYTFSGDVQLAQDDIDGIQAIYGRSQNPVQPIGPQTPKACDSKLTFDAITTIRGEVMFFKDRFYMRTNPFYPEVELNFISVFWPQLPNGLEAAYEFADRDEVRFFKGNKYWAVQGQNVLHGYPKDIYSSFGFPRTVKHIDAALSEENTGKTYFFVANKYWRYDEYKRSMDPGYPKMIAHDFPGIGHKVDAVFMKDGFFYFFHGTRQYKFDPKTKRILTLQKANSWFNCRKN

A further assay has as its target T2, recombinant human MMP-2 (Homo sapiens, UniProt P08253).
T2 sequence (P08253 110-660): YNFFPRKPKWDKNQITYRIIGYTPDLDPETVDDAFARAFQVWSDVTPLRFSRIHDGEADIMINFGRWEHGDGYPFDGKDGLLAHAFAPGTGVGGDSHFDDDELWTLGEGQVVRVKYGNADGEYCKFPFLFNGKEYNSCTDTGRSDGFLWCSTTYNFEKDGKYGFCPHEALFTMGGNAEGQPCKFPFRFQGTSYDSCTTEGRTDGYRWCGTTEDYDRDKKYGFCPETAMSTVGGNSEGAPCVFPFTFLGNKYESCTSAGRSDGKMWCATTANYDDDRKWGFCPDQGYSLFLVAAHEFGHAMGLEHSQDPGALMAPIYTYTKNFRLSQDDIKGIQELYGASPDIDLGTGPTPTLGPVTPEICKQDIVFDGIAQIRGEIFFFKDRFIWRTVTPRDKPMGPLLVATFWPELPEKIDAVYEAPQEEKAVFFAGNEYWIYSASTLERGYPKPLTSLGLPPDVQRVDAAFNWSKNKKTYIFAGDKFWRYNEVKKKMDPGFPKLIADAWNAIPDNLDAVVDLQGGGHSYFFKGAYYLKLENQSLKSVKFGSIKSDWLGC

For the next assay, the target named is recombinant human MMP-13 (Homo sapiens, UniProt P45452).

SMILES strings stand for the structures.

The term IC50 denotes the concentration that gives 50% inhibition.

Regarding `CN1CCN(C(=O)C2CCCN(c3ccc(S(=O)(=O)C4(C(=O)NO)CCOCC4)cc3)C2)CC1` (stereo not drawn) [Example 157], the 50% inhibitory concentration (IC50) is more than 10 µM at recombinant human MMP-1, 6 µM on recombinant human MMP-2 and 0.09 µM on recombinant human MMP-13.
For `O=C(C1CCCN(c2ccc(S(=O)(=O)C3(C(=O)NO)CCOCC3)cc2)C1)N1CCNCC1` (stereo not drawn) [Example 158], in that order: more than 10 µM, 5 µM and 0.08 µM.
For `CCOC(=O)C1CCN(C(=O)C2CCCN(c3ccc(S(=O)(=O)C4(C(=O)NO)CCOCC4)cc3)C2)CC1` (stereo not drawn) [Example 159], in that order: more than 10 µM, 2.5 µM and 0.0156 µM.
For `CCOC(=O)C1CCCN(C(=O)C2CCCN(c3ccc(S(=O)(=O)C4(C(=O)NO)CCOCC4)cc3)C2)C1` (stereo not drawn) [Example 160], in that order: more than 10 µM, 4.7 µM and 0.0337 µM.
In the case of `CCOC(=O)C1CCCCN1C(=O)C1CCCN(c2ccc(S(=O)(=O)C3(C(=O)NO)CCOCC3)cc2)C1` (stereo not drawn) [Example 161], the IC50 at recombinant human MMP-1 is more than 10 µM; on recombinant human MMP-2, more than 1 µM; on recombinant human MMP-13, more than 0.1 µM.
For `O=C(C1CCCN(c2ccc(S(=O)(=O)C3(C(=O)NO)CCOCC3)cc2)C1)N1CCCCCC1` (stereo not drawn) [Example 162], in that order: more than 10 µM, more than 1 µM and more than 0.1 µM.
With `CC1(C)C[C@@H]2C[C@@](C)(CN2C(=O)C2CCCN(c3ccc(S(=O)(=O)C4(C(=O)NO)CCOCC4)cc3)C2)C1` (stereo partly drawn) [Example 163], the results for the concentration for half-maximal inhibition (IC50) on recombinant human MMP-1, on recombinant human MMP-2 and at recombinant human MMP-13 were more than 10 µM, 4 µM and 0.0774 µM, respectively.
As for `CC1(C)C[C@@H]2C[C@@](C)(CN2C(=O)C2CCN(c3ccc(S(=O)(=O)C4(C(=O)NO)CCOCC4)cc3)CC2)C1` [Example 164], the IC50 on recombinant human MMP-1 is more than 10 µM; at recombinant human MMP-2 it was 1.75 µM; on recombinant human MMP-13, 0.02 µM.
For `O=C(C1CCN(c2ccc(S(=O)(=O)C3(C(=O)NO)CCOCC3)cc2)CC1)N1CCCCCC1` [Example 165], in that order: more than 10 µM, 0.33 µM and 0.0136 µM.
For `O=C(C1CCCN(c2ccc(S(=O)(=O)C3(C(=O)NO)CCOCC3)cc2)C1)N1CCC(O)C1` (stereo not drawn) [Example 166], in that order: more than 10 µM, more than 1 µM and more than 0.1 µM.
With `CN(C)[C@H]1CCN(C(=O)C2CCCN(c3ccc(S(=O)(=O)C4(C(=O)NO)CCOCC4)cc3)C2)C1` (stereo partly drawn) [Example 167], the figures for the IC50 on recombinant human MMP-1, at recombinant human MMP-2 and at recombinant human MMP-13 were more than 10 µM, more than 1 µM and more than 0.1 µM, respectively.
For `N[C@H]1CCN(C(=O)C2CCCN(c3ccc(S(=O)(=O)C4(C(=O)NO)CCOCC4)cc3)C2)C1` (stereo partly drawn) [Example 168], in that order: more than 10 µM, more than 1 µM and more than 0.1 µM.
For `O=C(C1CCCN(c2ccc(S(=O)(=O)C3(C(=O)NO)CCOCC3)cc2)C1)N1CCC(N2CCCC2)CC1` (stereo not drawn) [Example 171], in that order: more than 10 µM, more than 1 µM and more than 0.1 µM.
For `O=C(C1CCCN(c2ccc(S(=O)(=O)C3(C(=O)NO)CCOCC3)cc2)C1)N1CCCC1` (stereo not drawn) [Example 172], in that order: more than 10 µM, more than 1 µM and more than 0.1 µM.
In the case of `O=C(C1CCN(c2ccc(S(=O)(=O)C3(C(=O)NO)CCOCC3)cc2)CC1)N1CCC(O)C1` (stereo not drawn) [Example 173], the IC50 on recombinant human MMP-1 was more than 10 µM; at recombinant human MMP-2, more than 1 µM; on recombinant human MMP-13, more than 0.1 µM.
For `CN(C)[C@H]1CCN(C(=O)C2CCN(c3ccc(S(=O)(=O)C4(C(=O)NO)CCOCC4)cc3)CC2)C1` [Example 174], in that order: 8 µM, 0.9 µM and more than 0.1 µM.
For `O=C(C1CCN(c2ccc(S(=O)(=O)C3(C(=O)NO)CCOCC3)cc2)CC1)N1CCCC2CCCCC21` (stereo not drawn) [Example 177], in that order: more than 10 µM, 0.4 µM and 0.021 µM.

For the origin of these results see patent publication US20060084688A1, “Aromatic sulfone hydroxamic acid metalloprotease inhibitor” (priority 1997, published 2006).
